B1: human HB-EGF: growth factor, manufactured by PEPROTECH (protein, UniProt Q99075 63-148, looked up)
Heparin-binding EGF-like …: DLQEADLDLLRVTLSSKPQALATPNKEEHGKRKKKGKGLGKKRDPCLRKYKDFCIHGECKYVKELRAPSCICHPGYHGERCHGLSL
B2: human PDGF-BB: growth factor, manufactured by PEPROTECH (protein, UniProt P01127 82-190, looked up)
Platelet-derived growth …: SLGSLTIAEPAMIAECKTRTEVFEISRRLIDRTNANFLVWPPCVEVQRCSGCCNNRNVQCRPTQVQLRPVQVRKIEIVRKKPIFKKATVTLEDHLACKCETVAAARPVT
modifications: homodimer
notes: growth factor, manufactured by PEPROTECH

Tested on: Human pancreatic cancer cell line Panc02,03
Assay: Proliferation action on Panc02,03 cell stimulated by each growth factor (ATP, CellTiter-Glo)
Format: cell-based
[1] = Panc02,03, 30 ng/mL, medium composition of Example 13, on day 6 (head)
[2] = Panc02,03, 30 ng/mL, monolayer culture group, culture conditions on day 6 (head)
[3] = Panc02,03, 30 ng/mL, negative control group (medium free of deacylated gellan gum, low adhesion plate), on day 6 (head)
[4] = Panc02,03, 10 ng/mL, medium composition of Example 13, on day 6 (head)
[5] = Panc02,03, 10 ng/mL, monolayer culture group, culture conditions on day 6 (head)
[6] = Panc02,03, 10 ng/mL, negative control group (medium free of deacylated gellan gum, low adhesion plate), on day 6 (head)
[7] = Panc02,03, 100 ng/mL, medium composition of Example 13, on day 6 (head)
[8] = Panc02,03, 100 ng/mL, monolayer culture group, culture conditions on day 6 (head)
[9] = Panc02,03, 100 ng/mL, negative control group (medium free of deacylated gellan gum, low adhesion plate), on day 6 (head)

| Molecule | % control of RLU value (ATP measurement, luminescence intensity) (Panc02,03, 3 ng/mL, medium composition of Example 13, on day 6 (head)) [% Control] | % control of RLU value (ATP measurement, luminescence intensity) (Panc02,03, 3 ng/mL, monolayer culture group, culture conditions on day 6 (head)) [% Control] | % control of RLU value (ATP measurement, luminescence intensity) (Panc02,03, 3 ng/mL, negative control group (medium free of deacylated gellan gum, low adhesion plate), on day 6 (head)) [% Control] | % control of RLU value (ATP measurement, luminescence intensity) [1] [% Control] | % control of RLU value (ATP measurement, luminescence intensity) [2] [% Control] | % control of RLU value (ATP measurement, luminescence intensity) [3] [% Control] | % control of RLU value (ATP measurement, luminescence intensity) [4] [% Control] | % control of RLU value (ATP measurement, luminescence intensity) [5] [% Control] | % control of RLU value (ATP measurement, luminescence intensity) [6] [% Control] | % control of RLU value (ATP measurement, luminescence intensity) [7] [% Control] | % control of RLU value (ATP measurement, luminescence intensity) [8] [% Control] | % control of RLU value (ATP measurement, luminescence intensity) [9] [% Control] | efficacy in Panc02,03 cell proliferation test using the medium composition by the production method of the present invention (in words) (compared to a monolayer culture method and negative control group) |
| --- | --- | --- | --- | --- | --- | --- | --- | --- | --- | --- | --- | --- | --- |
| human TGF-β1: growth factor, manufactured by PEPROTECH | 102 | 95 | 114 | 106 | 99 | 122 | – | – | – | – | – | – | – |
| human IGF-1: growth factor, manufactured by PEPROTECH | – | – | – | – | – | – | 100 | 101 | 119 | 110 | 98 | 121 | – |
| B1 | – | – | – | 118 | 99 | 132 | – | – | – | 202 | 98 | 134 | strongly shown |
| B2 | – | – | – | – | – | – | 101 | 98 | 128 | – | – | – | – |

— patent publication US11345762B2, “Method for preparing liquid medium composition, and preparation device and kit therefor” (NISSAN CHEMICAL INDUSTRIES, LTD., priority 2015, dated 2022)
